Measurements: ChEMBL document CHEMBL5625204, “Synthesis and pharmacodynamic evaluation of naphthalene derivatives against influenza A virus in vitro and in vivo” (Eur J Med Chem, 2023)
The source made the active and inactive calls. No cut-off for these calls is given here.

Tests used:
Influenza A virus [1] = experiment: Inhibition of Influenza A virus replication infected in dog MDCK cells assessed as downregulation of virus NP gene expression at 25 to 50 uM measured after 24 to 72 hrs post-infection by qRT-PCR analysis; format: functional, organism-based; conditions: dose 25-50 µM
Erythrocyte = experiment: Inhibition of Hemagglutinin2 in Influenza A virus assessed as inhibition of virus-induced hemolysis at 7.81 to 250 uM pretreated with virus for 30 mins followed by chicken RBC addition and measured after 30 mins; format: cell-based; conditions: dose 7.81-250 µM, time 60.0 min
Influenza A virus [2] = experiment: Inhibition of Influenza A virus Neuraminidase at 100 to 300 uM pretreated with enzyme for 5 mins followed by fluorogenic substrate addition and measured for 1 hr by fluorescence based analysis; conditions: dose 100-300 µM, time 65.0 min
Influenza A virus [3] = experiment: Antiviral activity against Influenza A virus H1N1 (A/Weiss/43) infected in MDCK cells assessed as reduction of viral replication at 50 uM treated for 2 to 4 hrs after viral infection and measured after 72 hrs by MTT method; format: functional, organism-based; conditions: time 74-76 hrs
[4] = Selectivity index, ratio of CC50 for dog MDCK cells to EC50 for antiviral activity against Influenza A virus H1N1 (A/Weiss/43) infected in MDCK cells treated for 2 hrs during viral adsorption and measured after 72 hrs; format: toxicity, cell-based; conditions: read-out: Ratio CC50/EC50
Influenza A virus [5] = experiment: Antiviral activity against Influenza A virus H1N1 (A/Weiss/43) infected in MDCK cells assessed as reduction of viral replication treated for 2 hrs before viral infection and measured after 72 hrs by TCID50 method; format: functional, organism-based
[6] = Toxicity in BALB/c mouse infected with Influenza A virus H1N1 (A/Weiss/43) assessed as liver pathological changes at 25 to 100 mg/kg/day administered intranasally for 6 days starting from 3 hrs post-viral infection by Hematoxylin-Eosin staining based analysis; format: organism-based; conditions: in vivo, inhaled_or_intranasal, 144 h, dose 25-100 mg/kg/day, time 6 day
Influenza A virus [7] = experiment: Antiviral activity against Influenza A virus H1N1 (A/Weiss/43)-infected in BALB/c mouse assessed as reduction in viral NP protein expression in lungs at 25 to 100 mg/kg/day administered intranasally for 6 days starting from 3 hrs post-viral infection by immunohistochemistry; format: functional, organism-based; conditions: dose 25-100 mg/kg/day, route nas, time 6.0 day
Influenza A virus [8] = experiment: Antiviral activity against Influenza A virus H1N1 (A/Weiss/43)-infected in BALB/c mouse assessed as reduction in viral M mRNA expression in lungs at 25 to 100 mg/kg/day administered intranasally for 2 to 6 days starting from 3 hrs post-viral infection by qRT-PCR analysis; format: functional, organism-based; conditions: dose 25-100 mg/kg/day, route nas, time 2-6 day
[9] = Selectivity index, ratio of CC50 for dog MDCK cells to EC50 for antiviral activity against Influenza A virus H1N1 (A/Virginia/ATCC2/2009) infected in MDCK cells; format: toxicity, cell-based; conditions: read-out: Ratio CC50/EC50
Influenza A virus [10] = experiment: Antiviral activity against Influenza A virus H3N2 (A/California/2004) infected in MDCK cells assessed as reduction of viral replication incubated for 72 hrs by TCID50 method; format: functional, organism-based
Influenza A virus [11] = experiment: Antiviral activity against Influenza A virus infected in human A549 cells assessed as reduction of viral replication at 6.25 to 100 uM incubated for 72 hrs by TCID50 method; format: functional, organism-based; conditions: dose 6.25-100 µM
Influenza A virus [12] = experiment: Inhibition of Influenza A virus replication infected in dog MDCK cells assessed as downregulation of virus NP protein expression by measuring decrease in green fluorescence intensity at 25 to 50 uM measured after 24 hrs by immunofluorescence analysis; format: functional, organism-based; conditions: dose 25-50 µM
Influenza A virus [13] = experiment: Antiviral activity against Influenza A virus H1N1 (A/Weiss/43)-infected in dog MDCK cells assessed as reduction in oxidative stress by measuring proportion of cells with excessive ROS accumulation at 50 uM treated at 2 hrs post-infection and measured after 36 hrs by DCFH-DA staining based flow cytometry (reference value: 30.6%); format: functional; set-up: scale not given: the % may be the effect or the level left
Influenza A virus [14] = experiment: Antiviral activity against Influenza A virus H1N1 infected in dog MDCK cells assessed as decrease in apoptosis by measuring proportion of viable cells at 50 uM measured after 72 hrs by AnnexinV-FITC/PI staining based flow cytometry (reference value: 62.9%); format: functional
Influenza A virus [15] = experiment: Antiviral activity against Influenza A virus H1N1 infected in human A549 cells assessed as decrease in apoptosis by measuring decrease in cleaved caspase-9 protein expression at 25 to 50 uM measured after 24 hrs by western blot analysis; format: functional, organism-based; conditions: dose 25-50 µM
Influenza A virus [16] = experiment: Antiviral activity against Influenza A virus H1N1 infected in human A549 cells assessed as decrease in incompleted autophagy by measuring increase in p62 protein expression at 25 to 50 uM measured after 24 hrs by western blot analysis; format: functional, organism-based; conditions: dose 25-50 µM
Influenza A virus [17] = experiment: Antiviral activity against Influenza A virus H1N1 infected in human A549 cells assessed as decrease in RIG-1 pathway related protein expression by measuring decrease in NF-kappaB p65 protein expression at 25 to 50 uM measured after 24 hrs by western blot analysis; format: functional, organism-based; conditions: dose 25-50 µM
Influenza A virus [18] = experiment: Antiviral activity against Influenza A virus H1N1 infected in human A549 cells assessed as decrease in apoptosis inducing factor gene expression by measuring decrease in FasL gene expression at 25 to 50 uM measured after 24 hrs by qRT-PCR analysis; format: functional, organism-based; conditions: dose 25-50 µM
Influenza A virus [19] = experiment: Antiviral activity against Influenza A virus H1N1 infected in human A549 cells assessed as decrease in cytokine gene expression by measuring decrease in IL-1 beta gene expression at 25 to 50 uM measured after 24 hrs by qRT-PCR analysis; format: functional, organism-based; conditions: dose 25-50 µM
Influenza A virus [20] = experiment: Antiviral activity against Influenza A virus H1N1 infected in human A549 cells assessed as decrease in cytokine gene expression by measuring decrease in IL-8 gene expression at 25 to 50 uM measured after 24 hrs by qRT-PCR analysis; format: functional, organism-based; conditions: dose 25-50 µM
Influenza A virus [21] = experiment: Antiviral activity against Influenza A virus H1N1 (A/Weiss/43)-infected in BALB/c mouse assessed as improvement in body weight at 25 to 100 mg/kg/day administered intranasally for 6 days starting from 3 hrs post-viral infection; format: functional, organism-based; conditions: dose 25-100 mg/kg/day, route nas, time 6.0 day
[22] = Toxicity in BALB/c mouse infected with Influenza A virus H1N1 (A/Weiss/43) assessed as kidney pathological changes at 25 to 100 mg/kg/day administered intranasally for 6 days starting from 3 hrs post-viral infection by Hematoxylin-Eosin staining based analysis; format: organism-based; conditions: in vivo, inhaled_or_intranasal, 144 h, dose 25-100 mg/kg/day, route nas, time 6 day
Influenza A virus [23] = experiment: Antiviral activity against Influenza A virus H1N1 (A/Weiss/43)-infected in BALB/c mouse assessed as reduction in RIG-1 gene expression in lungs at 25 to 100 mg/kg/day administered intranasally for 6 days starting from 3 hrs post-viral infection by qRT-PCR analysis; format: functional, organism-based; conditions: dose 25-100 mg/kg/day, route nas, time 6.0 day
Influenza A virus [24] = experiment: Antiviral activity against Influenza A virus H1N1 (A/Weiss/43)-infected in BALB/c mouse assessed as reduction in TLR-7 gene expression in lungs at 25 to 100 mg/kg/day administered intranasally for 6 days starting from 3 hrs post-viral infection by qRT-PCR analysis; format: functional, organism-based; conditions: dose 25-100 mg/kg/day, route nas, time 6.0 day
Influenza A virus [25] = experiment: Antiviral activity against Influenza A virus H1N1 (A/Weiss/43)-infected in BALB/c mouse assessed as reduction in IL-6 gene expression in lungs at 25 to 100 mg/kg/day administered intranasally for 6 days starting from 3 hrs post-viral infection by qRT-PCR analysis; format: functional, organism-based; conditions: dose 25-100 mg/kg/day, route nas, time 6.0 day

For `O=[N+]([O-])c1ccc(S(=O)(=O)N(Cc2ccccc2)c2cccc3ccccc23)cc1`, the inhibition (Influenza A virus [1]) was “Active”, the inhibition (Erythrocyte) was “inactive” and the inhibition (Influenza A virus [2]) was “inactive”. For the same compound, the Activity (Influenza A virus [3]) was “Active”, the selectivity ratio at 72 h [4] was over 131 and the EC50 (Influenza A virus [5]) was 7.61 µM. For the same compound, the Activity [6] was “Non-Toxic”, the Activity (Influenza A virus [7]) was “Active” and the Activity (Influenza A virus [8]) was “Active”. The selectivity ratio [9] was over 240, the EC50 (Influenza A virus [10]) was 6.61 µM and the Activity (Influenza A virus [11]) was “Active”. The inhibition (Influenza A virus [12]) was “Active”, the Activity (Influenza A virus [13]) was 4.66% and the Activity (Influenza A virus [14]) was 95.4%. For the same compound, the inhibition (Influenza A virus [15]) was “Active”, the inhibition (Influenza A virus [16]) was “Active” and the inhibition (Influenza A virus [17]) was “Active”. For the same compound, the inhibition (Influenza A virus [18]) was “Active”, the inhibition (Influenza A virus [19]) was “Active” and the inhibition (Influenza A virus [20]) was “Active”. The Activity (Influenza A virus [21]) was “Active”, the Activity [22] was “Non-Toxic” and the Activity (Influenza A virus [23]) was “Active”. For the same compound, the Activity (Influenza A virus [24]) was “Active” and the Activity (Influenza A virus [25]) was “Active”.
